Measurements from US20070167488A1, “Novel therapeutic use” (Leo Pharma A/S, priority 2003, published 2007).
Like-named read-outs stand apart in the source and are kept apart here. Marks after values point to notes of the source that are not given here.

Tests used:
[1] = tested on: IL-2; experiment: Inhibition of IL-2 production in phytohemagglutinin-activated human PBMCs (sandwich ELISA); type: cell-based; details: approximately 46 hours; for IC50: PBMC, read-out: IL-2 pIC50 (converted)
Experimental: Peripheral blood mononuclear cells (PBMCs) were isolated from human blood. The lymphocytes, a fraction of the PBMCs, were activated to secrete IL-2 using the polyclonal mitogen phytohemagglutinin. The test compounds were added in concentrations from 10^−5 to 10^−10, and the cells (10^6/ml) were incubated in microtiter wells at 37° C. for approximately 46 hours.
After 46 hours the cells were centrifuged down for 25 minutes at 1000×g and the supernatants were transferred to transferred to microtiter wells precoated with a monoclonal antibody against human IL-2. The IL-2 concentration in the supernatants was determined by a sandwich ELISA. Microtiter plates were coated (1 μg/ml) with a monoclonal antibody (R&D, UK) against human IL-2, washed 4 times, blocked with 1% casein buffer for 2 hours and washed 2 times. 100 μl sample was added to each well and incubated overnight. All samples were tested in triplicate. 100 μl IL-2 standards (R&D, UK) at a concentration range of 10000-0 pg/ml were tested in triplicate. After incubation the plates were washed and incubated with biotinylated polyclonal secondary antibody against human IL-2 (R&D, UK) for 45 minutes and thereafter washed 4 times. 100 μl enzyme conjugate, horseradish peroxidase conjugated streptavidin diluted 1:4000 (Zymed, USA), was added to all wells and incubated for 30 minutes. 100 μl OPD substrate (KEM EN TEC-DK) was added and the enzyme/substrate reaction stopped after 10 minutes at room temperature with 50 μl 1 M H2SO4. The colour development (optical density—OD) was determined at 492 nm on an ELISA reader and the background OD at 620 nm subtracted).

[2] = tested on: EAE induced in SJL/J mice with a peptide from myelin proteolipid protein (PLP139-153); experiment: EAE model in SJL/J mice immunized with PLP139-153 peptide; type: in vivo, mouse; details: for inhibition of EAE: another experiment (data not shown)
[3] = Table 4, 50 mg/kg daily, treatment as in example 4
[4] = Table 7, 50 mg/kg p.o., suspension vehicle
[5] = Table 3, experiment with vehicle AUC 42.75, day 0-21, 50 mg/kg i.p. daily
[6] = Table 7, 50 mg/kg p.o., suspension vehicle adjusted to pH 4 by addition of aqueous HCl

| Compound | IC50 ([1]; Homo sapiens, 46 h) [nM] | other results |
| --- | --- | --- |
| O=C1Nc2ccccc2/C1=C/c1c[nH]c2ccccc12 | 1 |  |
| O=CN1CCN(c2ccc(/C=C3\C(=O)Nc4ccccc43)cc2)CC1 | 316 |  |
| Cc1cc(C)c(/C=C2\C(=O)Nc3ccccc32)[nH]1 |  | IC50 [1]: 0.2 nM |
| O=C1Nc2ccccc2/C1=C/c1cc(Br)ccc1O | 20 |  |
| COc1ccc(OC)c(/C=C2\C(=O)Nc3ccc(Cl)cc32)c1 | 20 |  |
| O=C1Nc2ccc(Cl)cc2/C1=C/c1ccccc1O | 100 |  |
| COc1ccc(/C=C2\C(=O)Nc3ccc(Cl)cc32)cc1 | 10 |  |
| Cc1[nH]c(/C=C2\C(=O)Nc3ccccc32)c(C)c1CCC(=O)O | 50.1 |  |
| Cc1cc(C)c(/C=C2\C(=O)Nc3cccc(C)c32)[nH]1 | 39.8 |  |
| COc1cc[nH]c1/C=C1\C(=O)Nc2ccc(Cl)cc21 | 50.1 |  |
| COc1cc[nH]c1/C=C1\C(=O)Nc2ccccc21 | 20 |  |
| Cc1[nH]c(/C=C2\C(=O)Nc3cccc(Cl)c32)c(C)c1CCC(=O)O | 50.1 |  |
| Cc1cc(C)c(/C=C2\C(=O)Nc3cccc(Cl)c32)[nH]1 | 1 |  |
| COc1cc[nH]c1/C=C1\C(=O)Nc2cccc(Cl)c21 | 0.1 |  |
| Cc1cc(C)c(/C=C2\C(=O)Nc3cccc(C(=O)O)c32)[nH]1 | 100 |  |
| O=C1Nc2ccccc2/C1=C/c1cn(Cc2ccccc2)c2ccccc12 | 3.98 |  |
| O=C1Nc2ccccc2/C1=C\c1c(-c2ccccc2)[nH]c2ccccc12 | 100 |  |
| Cn1cc(/C=C2\C(=O)Nc3ccccc32)c2ccccc21 | 2 |  |
| COc1ccc(CN2C(=O)/C(=C\c3[nH]c(C)cc3C)c3ccccc32)cc1 | 31.6 |  |
| Cc1cc(C(=O)O)[nH]c1/C=C1\C(=O)Nc2ccccc21 | 200 |  |

| Compound | IC50 ([1]; Homo sapiens, 46 h) [nM] | other results |
| --- | --- | --- |
| Cc1cc(C)c(/C=C2\C(=O)Nc3ccc(O)cc32)[nH]1 | 794 |  |
| Cc1cc(C)c(/C=C2\C(=O)Nc3ccc(F)cc32)[nH]1 | 100 |  |
| O=C1Nc2ccccc2/C1=C\c1ccc(-c2ccccc2)o1 | 3.98 |  |
| O=C1Nc2ccccc2/C1=C\c1cc(Cl)cc(Cl)c1OCc1ccc2ccccc2n1 | 100 |  |
| O=C1Nc2ccccc2/C1=C\c1ccc(Br)s1 | 20 |  |
| O=C1Nc2ccccc2/C1=C\c1cc(Br)cs1 | 6.31 |  |
| O=C1Nc2ccccc2/C1=C\c1ccc([N+](=O)[O-])s1 | 31.6 |  |
| O=C1Nc2ccccc2/C1=C\c1ccoc1 | 631 |  |
| COc1cccc(/C=C2/C(=O)Nc3ccccc32)c1 | 6.31 |  |
| COc1ccc(OC)c(/C=C2/C(=O)Nc3ccc(N)cc32)c1 |  | IL-2 pIC50 [1]: 6.5 |
| COc1ccc(OC)c(/C=C2/C(=O)Nc3ccc(N)cc32)c1.CS(=O)(=O)O |  | IL-2 pIC50 [1]: 7.2 |
| COc1cccc(C=C2C(=O)Nc3ccccc32)c1 (racemic) [Compound 153, 3-(3-methoxy-benzylidene)-1,3-dihydro-indol-2-one] |  | Inhibition (%) of EAE (area-under-curve of the disease score) [2, 3]: 38% |
| O=C1Nc2ccccc2C1=Cc1cc(Cl)ccc1Cl (racemic) [Compound 193, 3-(2,5-dichloro-benzylidene)-1,3-dihydro-indol-2-one] |  | Inhibition (%) of EAE (area-under-curve of the disease score) [2, 3]: 37% |
| CCOC(=O)c1cc(C)c(/C=C2\C(=O)Nc3ccccc32)[nH]1 [Compound 01, 4-methyl-5-(2-oxo-1,2-dihydro-indol-3-ylidenemethyl)-1H-pyrrole-2-carboxylic acid ethyl ester] |  | Inhibition (%) of EAE (area-under-curve of the disease score) [2, 3]: 44% |
| Cc1cc(C(=O)NCCO)[nH]c1/C=C1\C(=O)Nc2ccccc21 [Compound 02, 4-methyl-5-(2-oxo-1,2-dihydro-indol-3-ylidenemethyl)-1H-pyrrole-2-carboxylic acid (2-hydroxy-ethyl)-amide] |  | Inhibition (%) of EAE (area-under-curve of the disease score) [2, 3]: 41% |
| Cc1cc(CO)[nH]c1/C=C1\C(=O)Nc2ccccc21 [Compound 03, 3-(5-hydroxymethyl-3-methyl-1H-pyrrol-2-ylmethylene)-1,3-dihydro-indol-2-one] |  | Inhibition (%) of EAE (area-under-curve of the disease score) [2, 3]: 57% |
| Cc1[nH]c(/C=C2\C(=O)Nc3ccccc32)c(C)c1Br [Compound 22, 3-(4-bromo-3,5-dimethyl-1H-pyrrol-2-ylmethylene)-1,3-dihydro-indol-2-one] |  | Inhibition (%) of EAE (area-under-curve of the disease score) [2, 3]: 78% |
| O=C(O)Cn1cc(/C=C2\C(=O)Nc3ccccc32)c2ccccc21 [Compound 26, [3-(2-oxo-1,2-dihydro-indol-3-ylidenemethyl)-indol-1-yl]-acetic acid] |  | Inhibition (%) of EAE (area-under-curve of the disease score) [2, 3]: 34% |
| CCCn1cc(/C=C2\C(=O)Nc3ccccc32)c2ccccc21 [Compound 31, 3-(1-propyl-1H-indol-3-ylmethylene)-1,3-dihydro-indol-2-one] |  | Inhibition (%) of EAE (area-under-curve of the disease score) [2, 3]: 60% |
| COc1ccc(CN(C)C)cc1/C=C1/C(=O)Nc2ccccc21 [Compound 32, 3-(5-dimethylaminomethyl-2-methoxy-benzylidene)-1,3-dihydro-indol-2-one] |  | Inhibition (%) of EAE (area-under-curve of the disease score) [2, 4]: 40% |

| Compound | IC50 ([1]; Homo sapiens, 46 h) [nM] | other results |
| --- | --- | --- |
| Cc1cc(C)c(/C=C2\C(=O)N(O)c3ccccc32)[nH]1 [Compound 45, 3-(3,5-dimethyl-1H-pyrrol-2-ylmethylene)-1-hydroxy-1,3-dihydro-indol-2-one] |  | Inhibition (%) of EAE (area-under-curve of the disease score) [2, 3]: 67% |
| CC(=O)ON1C(=O)/C(=C\c2[nH]c(C)cc2C)c2ccccc21 [Compound 51, acetic acid 3-(3,5-dimethyl-1H-pyrrol-2-ylmethylene)-2-oxo-2,3-dihydro-indol-1-yl ester] |  | Inhibition (%) of EAE (area-under-curve of the disease score) [2, 3]: 48% |
| Cc1[nH]c2ccccc2c1/C=C1/C(=O)Nc2ccccc21 [Compound 75, 3-(2-methyl-1H-indol-3-ylmethylene)-1,3-dihydro-indol-2-one] |  | Inhibition (%) of EAE (area-under-curve of the disease score) [2, 3]: 63% |
| Cc1ccc(C)c(/C=C2/C(=O)Nc3ccccc32)c1 [Compound 104, 3-(2,5-dimethyl-benzylidene)-1,3-dihydro-indol-2-one] |  | Inhibition (%) of EAE (area-under-curve of the disease score) [2, 3]: 71% |
| COc1ccc(OC)c(/C=C2/C(=O)Nc3ccccc32)c1 [Compound 110, 3-(2,5-dimethoxy-benzylidene)-1,3-dihydro-indol-2-one] |  | Inhibition of EAE compared with the suspension vehicle group (in words) ([2]; SJL/J mice, PLP139-153, doses as in tables 1 and 3): clear and significant inhibition; AUC (mean) of the disease score [2, 5]: 12.15; inhibition (%) [2, 5]: 72%; Inhibition (%) of EAE (area-under-curve of the disease score) [2, 4]: 47%; Inhibition (%) of EAE (area-under-curve of the disease score) [2, 6]: 67** %; inhibition of EAE ([2]; 50 mg/kg, highest dose): 90%; inhibition of EAE ([2]; lowest dose (significant at 50, 25 and 10 mg/kg; 4 mg/kg also given)): 42% |
| COc1ccc(OC)c(/C=C2/C(=O)Nc3cc(Br)ccc32)c1 [Compound 171, 6-bromo-3-(2,5-dimethoxy-benzylidene)-1,3-dihydro-indol-2-one] |  | Inhibition (%) of EAE (area-under-curve of the disease score) [2, 3]: 40% |
| COc1ccc(OC)c(/C=C2/C(=O)Nc3ccc(F)cc32)c1 [Compound 211, 3-(2,5-dimethoxy-benzylidene)-5-fluoro-1,3-dihydro-indol-2-one] |  | Inhibition (%) of EAE (area-under-curve of the disease score) [2, 6]: 37** % |
| CCN(CC)CCNC(=O)c1c(C)[nH]c(/C=C2\C(=O)Nc3ccccc32)c1C [Compound 227, 2,4-dimethyl-5-(2-oxo-1,2-dihydro-indol-3-ylidenemethyl)-1H-pyrrole-3-carboxylic acid (2-diethylamino-ethyl)-amide] |  | Inhibition (%) of EAE (area-under-curve of the disease score) [2, 3]: 49% |
| CCN(CC)CCNC(=O)c1c(C)[nH]c(/C=C2\C(=O)Nc3ccc(F)cc32)c1C [Compound 228, 5-(5-fluoro-2-oxo-1,2-dihydro-indol-3-ylidenemethyl)-2,4-dimethyl-1H-pyrrole-3-carboxylic acid (2-diethylamino-ethyl)-amide] |  | Inhibition (%) of EAE (area-under-curve of the disease score) [2, 3]: 43% |
| Cc1ccc(C)c(/C=C2/C(=O)Nc3ccccc32)c1 [drawing 112] | 100 |  |
| COc1ccc(OC)c(/C=C2/C(=O)Nc3ccccc32)c1 [drawing 114] | 3.98 |  |
| CCCn1cc(/C=C2\C(=O)Nc3ccccc32)c2ccccc21 [drawing 137] | 0.2 |  |
| CCOC(=O)c1cc(C)c(/C=C2\C(=O)Nc3ccccc32)[nH]1 [drawing 139] | 10 |  |
| Cc1cc(CO)[nH]c1/C=C1\C(=O)Nc2ccccc21 [drawing 144] | 39.8 |  |
| COc1ccc(OC)c(/C=C2/C(=O)Nc3cc(Br)ccc32)c1 [drawing 164] | 1 |  |
| Cc1cc(C(=O)NCCO)[nH]c1/C=C1\C(=O)Nc2ccccc21 [drawing 176] | 31.6 |  |
| Cc1[nH]c2ccccc2c1/C=C1/C(=O)Nc2ccccc21 [drawing 197] | 794 |  |
| Cc1[nH]c(/C=C2\C(=O)Nc3ccccc32)c(C)c1Br [drawing 211] | 79.4 |  |
| Cc1cc(C)c(/C=C2\C(=O)N(O)c3ccccc32)[nH]1 [drawing 224] | 10 |  |
| O=C(O)Cn1cc(/C=C2\C(=O)Nc3ccccc32)c2ccccc21 [drawing 229] | 39.8 |  |
